Source: the supplement of paper PMC10307832

Legend:
Assay in all cases: relative viability (nuclei count vs DMSO), 5 days (fraction); higher = more cells survive
Kobe2602 + AZD7762 = compound: C1=CC(=CC=C1NC(=S)NNC2=C(C=C(C=C2[N+](=O)[O-])C(F)(F)F)[N+](=O)[O-])F [Kobe2602] + NC(=O)Nc1cc(-c2cccc(F)c2)sc1C(=O)N[C@H]1CCCNC1 [AZD7762] (partner 0.2 µM)
Procedure, shortened: (§1)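 Relative viability was taken as the ratio of nuclei in treated wells to nuclei in vehicle wells. Lung cancer cell lines in 1536-well plates received compounds by pin tool one day after seeding, either one drug alone or a fixed anchor-drug dose plus five library-drug doses (not always all listed) in √10 steps. Nuclei were counted on 4× images after 5 days of treatment, and values are medians of duplicate plates.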

Kobe2602 + Vorinostat = compound: C1=CC(=CC=C1NC(=S)NNC2=C(C=C(C=C2[N+](=O)[O-])C(F)(F)F)[N+](=O)[O-])F [Kobe2602] + O=C(CCCCCCC(=O)Nc1ccccc1)NO [Vorinostat] (partner 1 µM)
Procedure, shortened: as §1

Kobe2602 + Olaparib = compound: C1=CC(=CC=C1NC(=S)NNC2=C(C=C(C=C2[N+](=O)[O-])C(F)(F)F)[N+](=O)[O-])F [Kobe2602] + O=C(c1cc(Cc2n[nH]c(=O)c3ccccc23)ccc1F)N1CCN(C(=O)C2CC2)CC1 [Olaparib] (partner 8 µM)
Procedure, shortened: as §1

[1] = compound: COc1cc2nccc(Oc3ccc(NC(=O)C4(C(=O)Nc5ccc(F)cc5)CC4)cc3)c2cc1OC [Cabozantinib] + O=C(CCCCCCC(=O)Nc1ccccc1)NO [Vorinostat] (partner 1 µM)
Procedure, shortened: as §1

| Cell Line | relative viability (Kobe2602 + AZD7762; first compound 0.2 µM) | relative viability (Kobe2602 + AZD7762; first compound 0.6325 µM) | relative viability (Kobe2602 + AZD7762; first compound 2 µM) | relative viability (Kobe2602 + AZD7762; first compound 6.325 µM) | relative viability (Kobe2602 + AZD7762; first compound 20 µM) | relative viability (Kobe2602 + Vorinostat; first compound 0.2 µM) | relative viability (Kobe2602 + Vorinostat; first compound 0.6325 µM) | relative viability (Kobe2602 + Vorinostat; first compound 2 µM) | relative viability (Kobe2602 + Vorinostat; first compound 6.325 µM) | relative viability (Kobe2602 + Vorinostat; first compound 20 µM) | relative viability (Kobe2602 + Olaparib; first compound 0.2 µM) | relative viability (Kobe2602 + Olaparib; first compound 0.6325 µM) | relative viability (Kobe2602 + Olaparib; first compound 2 µM) | relative viability (Kobe2602 + Olaparib; first compound 6.325 µM) | relative viability (Kobe2602 + Olaparib; first compound 20 µM) | relative viability ([1]; first compound 0.02 µM) | relative viability ([1]; first compound 0.06325 µM) | relative viability ([1]; first compound 0.2 µM) | relative viability ([1]; first compound 0.6325 µM) | relative viability ([1]; first compound 2 µM) |
| --- | --- | --- | --- | --- | --- | --- | --- | --- | --- | --- | --- | --- | --- | --- | --- | --- | --- | --- | --- | --- |
| NCI-H522 | 1.02 | 1.14 | 0.855 | 0.954 | 0.859 | 0.949 | 1.05 | 0.964 | 1 | 0.898 | 0.66 | 0.662 | 0.646 | 0.641 | 0.598 | 0.737 | 1.01 | 1.03 | 0.902 | 0.902 |
| ChaGo-K-1 | 0.891 | 0.836 | 0.878 | 0.892 | 0.872 | 0.813 | 0.812 | 0.766 | 0.708 | 0.697 | 0.362 | 0.406 | 0.4 | 0.355 | 0.332 | 0.741 | 0.81 | 0.704 | 0.72 | 0.772 |
| EMC-BAC-2 | 1.14 | 1.16 | 1.06 | 1.21 | 1.16 | 0.494 | 1.01 | 0.425 | 0.593 | 0.462 | 0.511 | 0.531 | 0.46 | 0.559 | 0.532 | 0.279 | 0.678 | 0.608 | 0.456 | 0.422 |
| LCLC-103H | 0.76 | 0.842 | 0.791 | 0.848 | 0.81 | 0.802 | 0.813 | 0.776 | 0.839 | 0.81 | 0.775 | 0.793 | 0.804 | 0.762 | 0.764 | 0.762 | 0.906 | 0.892 | 0.791 | 0.736 |
| NCI-H1395 | 0.35 | 0.428 | 0.406 | 0.422 | 0.406 | 0.786 | 1.04 | 0.733 | 0.666 | 0.93 | 0.447 | 0.487 | 0.463 | 0.535 | 0.486 | 0.623 | 0.831 | 0.703 | 0.685 | 0.656 |
| NCI-H23 | 0.332 | 0.312 | 0.217 | 0.197 | 0.182 | 0.616 | 0.645 | 0.628 | 0.544 | 0.729 | 0.367 | 0.355 | 0.249 | 0.277 | 0.313 | – | 0.794 | 0.553 | 0.631 | 0.551 |
| NCI-H322M | 0.604 | 0.52 | 0.474 | 0.72 | 0.587 | 0.958 | 1.03 | 0.851 | 0.849 | 0.921 | 0.737 | 0.752 | 0.776 | 0.875 | 0.828 | 0.897 | 1.1 | 0.894 | 0.894 | 0.917 |
| NCI-H2126 | 1.07 | 1.01 | 1.09 | 1.08 | 0.988 | 0.811 | 0.819 | 0.737 | 0.76 | 0.855 | 0.868 | 0.892 | 0.905 | 0.929 | 0.926 | 0.471 | 0.773 | 0.777 | 0.784 | 0.798 |
| NCI-H647 | 0.681 | 0.645 | 0.423 | 0.532 | 0.454 | 0.613 | 0.582 | 0.64 | 0.583 | 0.601 | 0.511 | 0.39 | 0.55 | 0.606 | 0.618 | 0.621 | 0.734 | 0.696 | 0.43 | 0.496 |
| LU99A | 0.356 | 0.381 | 0.31 | 0.279 | 0.356 | 0.491 | 0.493 | 0.539 | 0.51 | 0.53 | 0.255 | 0.275 | 0.259 | 0.262 | 0.28 | 0.413 | 0.524 | 0.574 | 0.456 | 0.647 |
| NCI-H1666 | 0.804 | 0.804 | 0.903 | 0.812 | 0.891 | 1.06 | 1.04 | 1.13 | 1.01 | 0.981 | 0.717 | 0.741 | 0.829 | 0.774 | 0.805 | 1.09 | 1.1 | 1.02 | 1.04 | 0.95 |
| NCI-H596 | 1.13 | 0.978 | 1.03 | 0.87 | 1.02 | 0.591 | 0.726 | 0.63 | 0.659 | 0.68 | 0.758 | 0.661 | 0.718 | 0.718 | 0.799 | 0.628 | 0.812 | 0.677 | 1.5 | 0.6 |
